Experiments:
[1] = target: Epidermal growth factor receptor (Homo sapiens, UniProt P00533); assay type: single protein
Description: Inhibition of recombinant wild type EGFR (696 to C-terminal residues) (unknown origin) preincubated for 30 mins followed by poly (Glu-Tyr) biotinylated peptide substrate addition measured after 30 mins in presence of ATP by ELISA

[2] = target: Epidermal growth factor receptor (Homo sapiens, UniProt P00533, L858R/T790M); assay: Inhibition of recombinant EGFR (unknown origin) T790M/L858R double mutant preincubated for 30 mins followed by poly (Glu-Tyr) biotinylated peptide substrate addition measured after 30 mins in presence of ATP by ELISA
Epidermal growth factor receptor (Homo sapiens, UniProt P00533, L858R/T790M), sequence (P00533 25-1210 T790M/L858R limits assumed): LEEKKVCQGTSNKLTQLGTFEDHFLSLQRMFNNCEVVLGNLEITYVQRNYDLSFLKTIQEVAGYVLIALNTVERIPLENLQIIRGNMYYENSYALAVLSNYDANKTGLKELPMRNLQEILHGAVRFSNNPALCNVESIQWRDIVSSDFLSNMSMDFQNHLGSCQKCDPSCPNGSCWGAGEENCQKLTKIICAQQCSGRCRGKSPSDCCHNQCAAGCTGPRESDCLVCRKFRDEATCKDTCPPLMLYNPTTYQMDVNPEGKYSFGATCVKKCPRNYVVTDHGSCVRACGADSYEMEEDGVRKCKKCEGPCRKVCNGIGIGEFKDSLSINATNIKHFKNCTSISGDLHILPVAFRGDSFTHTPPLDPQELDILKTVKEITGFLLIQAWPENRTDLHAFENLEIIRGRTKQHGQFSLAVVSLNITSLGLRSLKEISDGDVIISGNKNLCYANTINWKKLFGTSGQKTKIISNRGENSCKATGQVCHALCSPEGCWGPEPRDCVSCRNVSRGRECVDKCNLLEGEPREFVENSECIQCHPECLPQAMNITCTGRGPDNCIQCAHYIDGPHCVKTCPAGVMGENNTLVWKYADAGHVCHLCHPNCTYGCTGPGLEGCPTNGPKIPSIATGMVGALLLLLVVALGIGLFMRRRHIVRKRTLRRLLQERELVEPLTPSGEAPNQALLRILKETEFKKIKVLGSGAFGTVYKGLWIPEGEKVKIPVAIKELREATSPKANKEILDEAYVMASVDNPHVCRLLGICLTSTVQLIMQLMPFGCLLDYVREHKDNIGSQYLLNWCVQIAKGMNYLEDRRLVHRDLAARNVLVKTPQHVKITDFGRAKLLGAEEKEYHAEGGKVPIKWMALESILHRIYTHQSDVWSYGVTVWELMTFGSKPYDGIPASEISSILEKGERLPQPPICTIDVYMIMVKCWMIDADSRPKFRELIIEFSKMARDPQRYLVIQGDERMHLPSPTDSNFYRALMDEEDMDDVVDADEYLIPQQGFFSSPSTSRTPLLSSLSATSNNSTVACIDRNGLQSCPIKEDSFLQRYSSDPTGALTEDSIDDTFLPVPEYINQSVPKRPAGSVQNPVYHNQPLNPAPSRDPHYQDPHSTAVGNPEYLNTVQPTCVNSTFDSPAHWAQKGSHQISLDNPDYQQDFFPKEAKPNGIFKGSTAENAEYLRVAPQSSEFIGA

Epidermal growth factor receptor (Homo sapiens, UniProt P00533), sequence (P00533 whole entry): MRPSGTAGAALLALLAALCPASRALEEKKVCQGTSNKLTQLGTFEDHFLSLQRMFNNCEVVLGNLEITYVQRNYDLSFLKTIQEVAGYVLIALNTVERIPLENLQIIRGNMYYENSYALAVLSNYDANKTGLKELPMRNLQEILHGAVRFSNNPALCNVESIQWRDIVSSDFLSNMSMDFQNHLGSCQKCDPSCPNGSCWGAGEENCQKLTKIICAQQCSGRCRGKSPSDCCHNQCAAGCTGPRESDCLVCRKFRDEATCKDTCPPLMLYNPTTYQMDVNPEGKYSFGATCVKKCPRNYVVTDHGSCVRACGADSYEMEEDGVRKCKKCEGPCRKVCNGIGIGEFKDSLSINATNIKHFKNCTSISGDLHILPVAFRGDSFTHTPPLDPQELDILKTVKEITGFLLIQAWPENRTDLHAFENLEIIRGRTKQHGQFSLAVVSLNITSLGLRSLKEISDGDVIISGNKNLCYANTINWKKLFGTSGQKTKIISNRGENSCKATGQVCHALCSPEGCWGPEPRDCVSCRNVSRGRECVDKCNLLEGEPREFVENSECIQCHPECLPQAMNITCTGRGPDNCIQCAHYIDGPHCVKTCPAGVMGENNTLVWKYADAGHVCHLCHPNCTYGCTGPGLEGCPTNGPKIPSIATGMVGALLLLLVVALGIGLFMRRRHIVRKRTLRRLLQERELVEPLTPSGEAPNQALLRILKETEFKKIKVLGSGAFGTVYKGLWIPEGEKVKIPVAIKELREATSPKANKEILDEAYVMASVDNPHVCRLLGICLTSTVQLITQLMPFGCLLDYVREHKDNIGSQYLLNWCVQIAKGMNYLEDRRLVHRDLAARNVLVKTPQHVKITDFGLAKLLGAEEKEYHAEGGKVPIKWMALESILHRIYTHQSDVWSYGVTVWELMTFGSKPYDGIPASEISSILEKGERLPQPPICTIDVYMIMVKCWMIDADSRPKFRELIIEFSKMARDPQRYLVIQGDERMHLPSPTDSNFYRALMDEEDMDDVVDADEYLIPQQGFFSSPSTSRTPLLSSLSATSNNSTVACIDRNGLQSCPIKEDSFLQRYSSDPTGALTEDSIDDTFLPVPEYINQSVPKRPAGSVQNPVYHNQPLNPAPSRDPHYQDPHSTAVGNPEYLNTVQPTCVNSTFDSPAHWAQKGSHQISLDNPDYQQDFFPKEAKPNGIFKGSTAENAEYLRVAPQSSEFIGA

Row | SMILES | IC50 [1] | IC50 [2]
1 | COc1ccc(-c2c3c4cc(OCCN(C)C)c(OCCN(C)C)cc4oc(=O)c3n3ccc4cc(O)c(OC)cc4c23)cc1O | 191 nM | 233 nM
2 | COc1ccc(-c2c3c4cc(O)c(OCCCN(C)C)cc4oc(=O)c3n3ccc4cc(O)c(OC)cc4c23)cc1O | 47.8 nM | 82.6 nM
3 | COc1ccc(-c2c3c4cc(OCCCN(C)C)c(OCCCN(C)C)cc4oc(=O)c3n3ccc4cc(O)c(OC)cc4c23)cc1O | 31.8 nM | 8.9 nM
4 | COc1ccc(-c2c3c4cc(OC)c(OCCCNC(=N)N)cc4oc(=O)c3n3ccc4cc(O)c(OC)cc4c23)cc1O | 47 nM | 39 nM
5 | COc1ccc(-c2c3c4cc(OCCCN5CCOCC5)c(OCCCN5CCOCC5)cc4oc(=O)c3n3ccc4cc(O)c(OC)cc4c23)cc1O | > 1000 nM | > 1000 nM

Continued, values first:

Row | IC50 [1] | IC50 [2] | SMILES
6 | 215 nM | 188 nM | COc1ccc(-c2c3c4cc(OC)c(OCCCN(C)C)cc4oc(=O)c3n3ccc4cc(O)c(OC)cc4c23)cc1O
7 | 595 nM | 560 nM | COc1ccc(-c2c3c4cc(OC)c(OCCN(C)C)cc4oc(=O)c3n3ccc4cc(O)c(OC)cc4c23)cc1O
8 | > 1000 nM | > 1000 nM | COc1ccc(-c2c3c4cc(OC)c(OC)cc4oc(=O)c3n3ccc4cc(O)c(OC)cc4c23)cc1O
9 | > 1000 nM | > 1000 nM | COc1ccc(-c2c3c4cc(OC)c(OCCNC(=N)N)cc4oc(=O)c3n3ccc4cc(O)c(OC)cc4c23)cc1O
10 | 842 nM | > 1000 nM | COc1ccc(-c2c3c4cc(OCCN(C)C)c(OC)cc4oc(=O)c3n3ccc4cc(O)c(OC)cc4c23)cc1O
11 | 249 nM | 397 nM | COc1ccc(-c2c3c4cc(O)c(OC)cc4oc(=O)c3n3ccc4cc(O)c(OC)cc4c23)cc1O

— ChEMBL document CHEMBL4177688, “Design, synthesis, and evaluation of A-ring-modified lamellarin N analogues as noncovalent inhibitors of the EGFR T790M/L858R mutant” (Bioorg Med Chem, 2017)
